Source: ChEMBL document CHEMBL1240511, “Design, synthesis, and in vitro pharmacology of new radiolabeled gamma-hydroxybutyric acid analogues including photolabile analogues with irreversible binding to the high-affinity gamma-hydroxybutyric acid binding sites” (J Med Chem, 2010)
The source made the active and inactive calls. The rule behind the calls is not given here.

How the values were obtained:
[1] = Displacement of [3H]NCS-382 from GABAB receptor gamma-hydroxybutyric acid binding site in rat cerebral cortex synaptic membranes after 1 hr by liquid scintillation counting; type: cell membranes, Membrane
Rattus norvegicus = organism: Rattus norvegicus; assay: Binding affinity to GABAB receptor gamma-hydroxybutyric acid binding site in UV irradiated rat cerebral cortex synaptic membranes assessed as covalent binding at 100 nM after 1 hr by gamma-hydroxybutyric acid displacement assay; type: tissue-based; details: tested as the 125I-labelled form

| Ki [1] [nM] | Activity (Rattus norvegicus) | SMILES |
| --- | --- | --- |
| 186 |  | [N-]=[N+]=Nc1ccc(COc2ccc(C(O)CCC(=O)O)cc2)cc1I (centres undefined) |
| 120 | Active | [N-]=[N+]=Nc1ccc(I)cc1COc1ccc(C(O)CCC(=O)O)cc1 (centres undefined) |
| 75 |  | O=C(O)CCC(O)c1ccc(OCc2cccc(I)c2)cc1 (centres undefined) |
